Reference: patent US7214794B2, “Ceramide analogs, process for their preparation and their use as antitumor agents” (Bracco S.p.A., priority 1999, dated 2007)

Tested on: human leukemia cell line CCRF/CEM
Experiment: Cytotoxicity test (growth inhibition of CCRF/CEM cells)
Format: cell-based
Conditions: 72 hours exposure, cell count, non-linear regression, read-out: IC50 (concentration capable of inhibiting 50% of cell growth)
Method: The cytotoxicity of the compounds synthesized 1–28 was assessed using a human leukemia cell line called CCRF/CEM. The CCRF/CEM cells were cultured in a culture medium containing RPMI 1640 (90%), bovine fetal sera (10%) and interleukin-2 (100 U/ml). The cytotoxicity assay was performed on […] CCRF/CEM cells seeded in 35 mm wells in 2 ml of culture medium. The cells were treated with the compounds under consideration for 72 hours and at the end of the period of exposure their number was counted and compared with that of control cells treated with C2-ceramide in order to establish the percentage of growth inhibition. The concentration capable of inhibiting 50% of cell growth was calculated by non-linear regression of the experimental data as described in M. Macchia, N. Jannitti, G. B. Gervasi, R. Danesi, J Med Chem, (1996) 39 (7): 1352–1356.

`CCCCCCCCCCCCC/C=C/[C@@H](O)[C@H](CO)NC(C)=O` [controls, C2-ceramide] was tested. Which IC50 did it give?
Its IC50 is 31.6 µM.
